Experiment: Moisture uptake at 75% relative humidity, gravimetric
Type: physicochemical
Conditions: freeze dried matrices, 75% RH atmosphere, 8 hours; for moisture uptake (percentage weight increase): FIG. 1
Method: Following lyophilisation the resultant freeze dried matrices were exposed to a 75% RH (Relative Humidity) atmosphere for a period of 8 hours. At intervals over this period, moisture uptake of each sample was measured gravimetrically and calculated as a percentage weight increase of the sample.

Row | SMILES | physical quality of sample after moisture exposure | moisture uptake (percentage weight increase)
1 | OC[C@H]1O[C@H](O[C@H]2O[C@H](CO)[C@@H](O)[C@H](O)[C@H]2O)[C@H](O)[C@@H](O)[C@@H]1O [trehalose] | deterioration in the physical quality | significant moisture uptake
2 | OC[C@@H](O)[C@@H](O)[C@H](O)[C@H](O)CO [mannitol] | – | no appreciable moisture uptake
